Results: patent US20260102492A1, “Inhibition of Natural Killer Cell Cytoxocity” (University of Cincinnati, priority 2022, published 2026)
Entries after “also recorded” stand apart in the source; their conditions may differ.

What was measured:
HNC NK cells = assay: RNA-seq of metformin treated HNSCC patient-derived NK cells; assay type: cell-based, Human; details: 12 mM metformin 24 hrs
Method: HNC NK cells were isolated as above and were treated with vehicle or 12 mM metformin for 24 hrs. Cells were washed, suspended in CyroStor, and frozen. Samples were sent to Genewiz/Azenta for standard RNA-seq profiling. Sequence reads were aligned to the current reference […] genome (GRCh38) using the STAR aligner (43,44) and the reads aligned to each known gene were counted based on the latest GENCODE definitions of gene features.

[1] = tested on: HNSCC patient-derived NK cells; assay: NK cell perforin ELISA after co-culture with Cal27 cells; assay type: cell-based, Human
Method: For NK cell perforin assays, NK cells were treated with drug for 24 hrs, washed, and co-cultured with Cal27 cells for 4 hours. Supernatant was then collected, snap frozen in liquid nitrogen and stored at −80 until thawed for single use. For patient samples, undiluted plasma was added directly to ELISA. ELISA kit for perforin was obtained from ABCAM. ELISA was performed according to the manufacturer's protocol. Protocols included overnight coating of capture antibody diluted by lot number recommendation, 1 hr block with 400 uL 2% BSA in PBS, 2 hr sample incubation at room temperature of 100 uL sample (no dilution of sample was performed in these experiments), 2 hr […] diluted by lot number recommendation, 20 min Streptavidin incubation with 100 uL of 1:40 dilution of stock, and 15 min incubation with 100 uL included TMB ELISA reagent. 50 uL stop solution of in house 2N […] was added to stop reaction before reading at […] wavelength on plate reader. All plates included standard curve prepared per lot number recommendation with range of 35-2000 pg.
HNSCC patient-derived NK cells were treated with exogenous CXCL1 and an inhibitor of the CXCL1 receptor, CXCR2, or metformin. Patient-derived NK cells were exposed to Cal27 cells for 4 hours and supernatant was collected for perforin analysis by ELISA. Specifically, HNSCC NK cells derived from PBMCs were treated with 50 ng CXCL1, 12 mM metformin, or 10 nM CXCR2i (navarixin) and subjected to perforin against Cal27 target cells. Cells were analyzed by flow and analyzed by one way ANOVA. n=8.
Specifically, HNSCC NK cells were treated with vehicle, metformin, or 10 uM AMPK inhibitor (Dosomorphin) for 24 hrs, washed, and co-cultured with Cal27 cells for 4 hrs. Supernatant was collected for ELISA and analyzed by one way ANOVA. n=5.
HNSCC patient-derived NK cells were treated with vehicle, metformin, 10 uM mTOR inhibitor (Everolimus), or 10 uM mTOR activator (MHY1485) for 24 hrs, washed, and co-cultured with Cal27 cells for 4 hrs. Supernatant was collected for ELISA and analyzed by one way ANOVA. n=5.
As pSTAT1 can modulate perforin production, HNSCC patient-derived NK cells were treated with vehicle, […], or 10 uM of pSTAT1i inhibitor Fludarabine for 24 hrs, washed, and co-cultured with Cal27 cells for 4 hrs.
HNSCC NK cells were treated with vehicle, 12 mM metformin, 50 ng CXCL1, or 10 uM pSTAT3 inhibitor BP-1012 and co-cultured with Cal27 cells for 4 hrs. Supernatant was collected for ELISA and analyzed by one way ANOVA. n=5.

CXCL1 = assay: Patient plasma CXCL1 ELISA, trial NCT04414540 (pembrolizumab and metformin); assay type: in vivo, Human
[2] = tested on: HNSCC patient-derived NK cells; assay: CXCL1 ELISA of NK cell culture supernatant; assay type: cell-based, Human
Method: Healthy donor and HNSCC NK cells were isolated from PBMCs and were treated for 24 hrs with vehicle or metformin. Supernatant was collected and analyzed by ELISA (analyzed by one way ANOVA. n=10).
HNSCC NK cells were isolated from PBMCs and treated with vehicle, 12 mM metformin, 50 ng CXCL1, 10 uM everolimus, or 10 uM BP-1-102 for 24 hr. The cells were washed and plated in fresh media. After 24 hrs, supernatant was collected for ELISA.

pSTAT3 = assay: Western blot of HNSCC NK cell lysates, pSTAT3; assay type: cell-based, Human; details: metformin or 50 ng CXCL1, 24 hrs; western blot, FIG. 3A/3B
Method: (§1) NK92, Cal27, UMSCC47 and HN5 cells were cultured with drug as described. Cells were collected in RIPA (0.05% sodium deoxycholate, […], 0.1% SDS, 1% NP-40) and protein content was analyzed by Pierce BCA kit (Thermo 23225). 50 ug of protein was diluted in 1×loading buffer (SDS, bromophenol blue, 47% glycerol, Tris 0.5M pH 6.8, 0.2 mM DTT-G) and heated to 90° C. for 3 minutes. Prepared lysate was loaded into gradient gels (Biorad 4561093) and run at 85V for 1.5 hour in Biorad casing with a Biorad powerpack in 1×running buffer (Tris, Glycine, SDS). Gels were transferred on nitrocellulose and run at 100V on bench for 1 hour in 1×transfer buffer (Tris, Glycine). Membranes were blocked in 5% BSA in TBS for 1 hr, washed, and incubated in primary diluted in 2% BSA in TBS overnight. Membranes were washed and incubated in Licor secondary (Licor 926-32211 and 925-68070) in 5% BSA in TBS for 1 hr. Membranes were washed and imaged on a Licor Odyssey Clx. Images were analyzed in Image Studio Lite V 5.2.
(§2) To determine what those pathways could be, pathways known to be affected by both metformin and CXCL1 were investigated. pSTAT3 and mTOR are known to be increased by activation of the CXCR2 receptor, and mTOR activation can inhibit pSTAT1 expression. Metformin is also hypothesized to inhibit pSTAT3 and mTOR in NK cells. Therefore, HNSCC patient-derived NK cells treated with metformin, CXCL1, or CXCR2i (navaxarin) were collected and analyzed by western blot analysis. Head and neck squamous cell carcinoma (HNSCC) natural killer (NK) cells were treated with metformin, 50 ng CXCL1, or 10 uM CXCR2i (navarixin) for 24 hrs and collected for lysates analyzed by western blot analysis (FIG. 3A).

[3] = Peripheral blood cell populations and serum cytokines of HNSCC patients after metformin treatment; assay type: in vivo, Human
Method: An Unpaired 2-tailed T Test With Welch's correction was used for analysis between flow cytometry in controls versus HNSCC patients. A 2-tailed Student's t test was used to compare differences between HNSCC patients before and after treatment in flow cytometry and cytokine experiments. Differences in immune cell populations between three groups were compared by one-way ANOVA with specific post-hoc contrasts. NKCA data were compared using a paired t test. Statistical analysis was performed in GraphPad Prism (V10). Differences between groups were considered statistically significant when P<0.05.

pSTAT1 = assay: Western blot of HNSCC NK cell lysates, pSTAT1; assay type: cell-based, Human; details: metformin or 50 ng CXCL1, 24 hrs, FIG. 3A/3B
Method: as §1, with “Membranes were blocked in 5% BSA in TBS for 1 hr, washed, and incubated in primary diluted in 2% BSA in TBS overnight. Membranes were washed and incubated in Licor secondary (Licor 926-32211 and 925-68070) in 5% BSA in TBS for 1 hr. Membranes were washed and imaged on a Licor Odyssey Clx.” left out
as §2, with “Metformin is also hypothesized to inhibit pSTAT3 and mTOR in NK cells.” left out

[4] = patient serum cytokine profile, after metformin
[5] = patients, after metformin treatment

With CN(C)C(=N)N=C(N)N [metformin, Metformin] the “CXCL1 expression (RNA-seq)” value (HNC NK cells) was “significantly downregulated CXCL1”, the perforin ([1]; 12 mM Metformin in pSTAT1-inhibited (10 uM Fludarabine) NK cells, Cal27 co-culture 4 hrs, FIG. 6) was “rescued to baseline” and the perforin production ([1]; 12 mM metformin or 50 ng CXCL1, Cal27 target cells 4 hours, n=8, FIG. 2) was “increased perforin”. For the same compound, the “circulating CXCL1” value (CXCL1; post-metformin and pembrolizumab combination (week 4), n=5) was “decrease was not retained”, the “circulating CXCL1” value (CXCL1; post-metformin only vs pre-treatment, n=5, FIG. 9) was “decreased” and the “circulating CXCL1” value (CXCL1; post-metformin only vs pre-treatment, n=5, FIG. 9, listed as Metformin) was “reduced circulating CXCL1”. The CXCL1 supernatant levels ([2]; HNSCC patient-derived NK cells treated 24 hrs, n=10, FIG. 1) was “inhibits CXCL1 release; also recorded: significantly reduced CXCL1 supernatant levels”, the CXCL1 secretion ([2]; single agent (12 mM metformin, 10 uM everolimus or 10 uM BP-1-102) 24 hr, fresh media 24 hrs, n=5, FIG. 8) was “reduces CXCL1” and the pSTAT3 (pSTAT3) was “decreases pSTAT3; also recorded: reduction of pSTAT3”. The “expression of NKG2D” value ([3]; circulating NK and NKT cells, after metformin treatment) was “increasing expression of NKG2D back to levels seen in healthy controls”, the IL-2 [3, 4] was “increasing” and the TNF-α [3, 4] was “increasing”. For the same compound, the TEM cells [3, 5] was “larger population”, the “circulating NK and NKT cell populations” value [3, 5] was “partially restored” and the pSTAT1 (pSTAT1) was “increases pSTAT1; also recorded: increase in pSTAT1”.
